Measurements: patent US20160221977A1, “ANT[…]-LACTONES, AND METHODS OF IDENTIFICATION, MANUFACTURE AND USE” (priority 2014, published 2016)
Values after ≈ are worked out from the molar mass of the structure shown.

Assays:
[1] = test system: S. coelicolor strain with the neo reporter gene; assay: neo reporter strain assay (kanamycin resistance under PopR-dependent promoter); assay type: cell-based, S. coelicolor M145; conditions: DNAgar, 10 μg/mL kanamycin, optical density at 48 hrs
[2] = test system: M. smegmatis MC2155; assay: toxicity to M. smegmatis (growth suppression, MIC); assay type: cell-based; conditions: for suppression of growth of M. smegmatis: M. smegmatis MC2155
Experimental: To determine if the results in the S. coelicolor based assay had relevance to Mycobacteria, all fourteen compounds were tested for toxicity to M. smegmatis MC2155, a surrogate of M. tuberculosis. […] Three of these inhibitory compounds were trans-disubstituted β-lactones with unbranched alkyl substituents on both the α- and β-carbons (β-lactones 2-4). For these molecules, there was a positive correlation between the length of the alkyl group on the α-carbon and antibacterial activity. […] The compounds were subsequently shown to be inhibitors of ClpP in vitro. In Mycobacteria, ClpP inhibition is associated with killing. Previous reports of ClpP inhibition generally described suppression of virulence in pathogenic bacteria (S. aureus and L. monocytogenes).

[3] = test system: M. tuberculosis H37Rv; assay: toxicity to M. tuberculosis (growth inhibition, MIC); assay type: cell-based

Row | SMILES | growth of reporter strain on media supplemented with kanamycin [1] | suppression of growth of M. smegmatis [2] | MIC ([2]; Mycolicibacterium smegmatis, MC2155, M. smegmatis) | inhibition of growth of M. tuberculosis H37Rv [3] | MIC ([3]; Mycobacterium tuberculosis, H37RV, M. tuberculosis)
1 | CCCCCCCC1C(=O)OC1CCC (stereo not drawn) [Compound 3] | enabled the reporter strain to grow on media supplemented with kanamycin | suppressed the growth of M. smegmatis | – | – | –
2 | CCCC1OC(=O)C1Cc1ccccc1 (stereo not drawn) [Compound 7] | enabled the reporter strain to grow on media supplemented with kanamycin | suppressed the growth of M. smegmatis | 10 µg/mL (≈ 49 µM) | inhibited growth of M. tuberculosis H37Rv | 28 µg/mL (≈ 137 µM)
3 | CCCCCC1C(=O)OC1CCC (stereo not drawn) [Compound 2] | enabled the reporter strain to grow on media supplemented with kanamycin | suppressed the growth of M. smegmatis | – | – | –
4 | C=CCCCCCCCC1C(=O)OC1CCC (stereo not drawn) [Compound 4] | enabled the reporter strain to grow on media supplemented with kanamycin | suppressed the growth of M. smegmatis | – | inhibited growth of M. tuberculosis H37Rv | –
